Assay results from article PMC10268488, “Indole-carbohydrazide linked phenoxy-1,2,3-triazole-N-phenylacetamide derivatives as potent α-glucosidase inhibitors: design, synthesis, in vitro α-glucosidase inhibition, and computational studies” (BMC Chemistry, 2023).
Like-named read-outs stand apart in the source and are kept apart here.

What was measured:
yeast α-glucosidase [1] = biological target: T1, yeast α-glucosidase (Saccharomyces cerevisiae, UniProt P53341); test: biochemical; format: biochemical; details: for diminished inhibitory activity relative to compound 11d: replacement of methoxy substituent of 11d
yeast α-glucosidase [2] = biological target: T1, yeast α-glucosidase; test: Kinetic study of α-glucosidase inhibition (Lineweaver–Burk plots); format: biochemical; details: for mechanism of α-glucosidase inhibition: Lineweaver–Burk plots, both Vmax and Km decreased; for Ki: Lineweaver–Burk secondary plot, substrate p-nitrophenyl-glucopyranoside 1–4 mM
Excerpt: Then, the Lineweaver-Burke plots were depicted using by the reciprocal of velocity and substrate concentration (Fig. 5).

[3] = system: normal human dermal fibroblast (HDF) cell line; test: In vitro cytotoxicity assay; format: cell-based; details: HDF cells, 50 μM concentration
Method: To assess of the cytotoxic effects of the new synthesized compounds, cytotoxicity of compounds 11d and 11n as the representative compounds was evaluated against the normal human dermal fibroblast (HDF) cell line.
Evaluation of cytotoxic effects of the synthesized compounds 11d and 11n was performed exactly based on our previous report.

[4] = read-out: IC50 (anti-α-glucosidase activity)

T1 sequence (P53341 whole entry): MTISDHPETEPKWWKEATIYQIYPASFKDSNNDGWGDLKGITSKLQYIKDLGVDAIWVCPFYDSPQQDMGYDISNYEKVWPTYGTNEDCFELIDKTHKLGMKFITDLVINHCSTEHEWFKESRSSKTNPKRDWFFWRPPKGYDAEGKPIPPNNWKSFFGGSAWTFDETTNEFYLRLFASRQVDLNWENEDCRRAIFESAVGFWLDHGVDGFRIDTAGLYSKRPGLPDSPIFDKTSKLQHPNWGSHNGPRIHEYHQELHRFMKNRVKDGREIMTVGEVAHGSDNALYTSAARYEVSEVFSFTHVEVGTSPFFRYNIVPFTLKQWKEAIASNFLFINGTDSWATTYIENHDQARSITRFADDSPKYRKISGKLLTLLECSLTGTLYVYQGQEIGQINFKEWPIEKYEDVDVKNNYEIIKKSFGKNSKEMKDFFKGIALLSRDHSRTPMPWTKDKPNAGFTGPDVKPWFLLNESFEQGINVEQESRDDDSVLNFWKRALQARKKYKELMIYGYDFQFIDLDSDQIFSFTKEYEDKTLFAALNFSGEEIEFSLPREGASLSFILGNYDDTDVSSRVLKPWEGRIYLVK

Compound `COc1cc(/C=N/NC(=O)c2cc3ccccc3[nH]2)ccc1OCc1cn(CC(=O)Nc2ccccc2)nn1` [Compound 11i, (E)-2-(4-((4-((2-(1H-indole-2-carbonyl)hydrazono)methyl)-2-methoxyphenoxy)methyl)-1H-1,2,3-triazol-1-yl)-N-phenylacetamide] has an IC50 (yeast α-glucosidase [1]) of 11.3 ± 0.15 µM.

`COc1ccc(NC(=O)Cn2cc(COc3ccc(/C=N/NC(=O)c4cc5ccccc5[nH]4)cc3OC)nn2)cc1` [Compound 11j, (E)-2-(4-((4-((2-(1H-indole-2-carbonyl)hydrazono)methyl)-2-methoxyphenoxy)methyl)-1H-1,2,3-triazol-1-yl)-N-(4-methoxyphenyl)acetamide] showed an IC50 (yeast α-glucosidase [1]; [4]) of 24.19 ± 0.1 µM.

With `COc1cc(/C=N/NC(=O)c2cc3ccccc3[nH]2)ccc1OCc1cn(CC(=O)Nc2cccc([N+](=O)[O-])c2Cl)nn1` [Compound 11o, (E)-2-(4-((4-((2-(1H-indole-2-carbonyl)hydrazono)methyl)-2-methoxyphenoxy)methyl)-1H-1,2,3-triazol-1-yl)-N-(2-chloro-3-nitrophenyl)acetamide] the IC50 (yeast α-glucosidase [1]) was 12.67 ± 0.05 µM and the melting point was > 250 °C.

`O=C(Cn1cc(COc2ccc(/C=N/NC(=O)c3cc4ccccc4[nH]3)cc2)nn1)Nc1ccccc1` [Compound 11a, (E)-2-(4-((4-((2-(1H-indole-2-carbonyl)hydrazono)methyl)phenoxy)methyl)-1H-1,2,3-triazol-1-yl)-N-phenylacetamide] gave an IC50 (yeast α-glucosidase [1]; [4]) of 15.2 ± 0.18 µM and a melting point of 194 to 196 °C.

In the case of `O=C(Cn1cc(COc2ccc(/C=N/NC(=O)c3cc4ccccc4[nH]3)cc2)nn1)Nc1ccccc1Cl` [Compound 11e, (E)-2-(4-((4-((2-(1H-indole-2-carbonyl)hydrazono)methyl)phenoxy)methyl)-1H-1,2,3-triazol-1-yl)-N-(2-chlorophenyl)acetamide], the IC50 (yeast α-glucosidase [1]) is reported as 26.97 ± 0.25 µM and the melting point is reported as > 250 °C.

For `Cc1ccccc1NC(=O)Cn1cc(COc2ccc(/C=N/NC(=O)c3cc4ccccc4[nH]3)cc2)nn1` [Compound 11b, (E)-2-(4-((4-((2-(1H-indole-2-carbonyl)hydrazono)methyl)phenoxy)methyl)-1H-1,2,3-triazol-1-yl)-N-(o-tolyl)acetamide], the IC50 (yeast α-glucosidase [1]; [4]) was 8.88 ± 0.07 µM, the “mechanism of α-glucosidase inhibition” value (yeast α-glucosidase [2]) was “uncompetitive inhibitors” and the Ki (yeast α-glucosidase [2]) was 8.5 µM.

Compound `COc1cc(/C=N/NC(=O)c2cc3ccccc3[nH]2)ccc1OCc1cn(CC(=O)Nc2cc(Cl)cc(Cl)c2)nn1` [Compound 11m, (E)-2-(4-((4-((2-(1H-indole-2-carbonyl)hydrazono)methyl)-2-methoxyphenoxy)methyl)-1H-1,2,3-triazol-1-yl)-N-(3,5-dichlorophenyl)acetamide] has an IC50 (yeast α-glucosidase [1]) of 14.2 ± 0.21 µM and a melting point of 247 to 249 °C.

In the case of `O=C(Cn1cc(COc2ccc(/C=N/NC(=O)c3cc4ccccc4[nH]3)cc2)nn1)Nc1ccc(Cl)cc1` [Compound 11f, (E)-2-(4-((4-((2-(1H-indole-2-carbonyl)hydrazono)methyl)phenoxy)methyl)-1H-1,2,3-triazol-1-yl)-N-(4-chlorophenyl)acetamide], the IC50 (yeast α-glucosidase [1]; [4]) is reported as 9.53 ± 0.12 µM, the “diminished inhibitory activity relative to compound 11d” value (yeast α-glucosidase [1]) is reported as 1.5 folds and the melting point is reported as 174 to 176 °C.

With `O=C(Cn1cc(COc2ccc(/C=N/NC(=O)c3cc4ccccc4[nH]3)cc2)nn1)Nc1ccc(Br)cc1` [Compound 11g, (E)-2-(4-((4-((2-(1H-indole-2-carbonyl)hydrazono)methyl)phenoxy)methyl)-1H-1,2,3-triazol-1-yl)-N-(4-bromophenyl)acetamide] the IC50 (yeast α-glucosidase [1]; [4]) was 49.89 ± 0.09 µM and the “diminished inhibitory activity relative to compound 11d” value (yeast α-glucosidase [1]) was 8 folds.

For `COc1cc(/C=N/NC(=O)c2cc3ccccc3[nH]2)ccc1OCc1cn(CC(=O)Nc2ccc(Cl)cc2)nn1` [Compound 11k, (E)-2-(4-((4-((2-(1H-indole-2-carbonyl)hydrazono)methyl)-2-methoxyphenoxy)methyl)-1H-1,2,3-triazol-1-yl)-N-(4-chlorophenyl)acetamide], the IC50 (yeast α-glucosidase [1]; [4]) was 31.56 ± 0.12 µM and the melting point was 184 to 186 °C.

With `COc1cc(/C=N/NC(=O)c2cc3ccccc3[nH]2)ccc1OCc1cn(CC(=O)Nc2ccc(Br)cc2)nn1` [Compound 11n, (E)-2-(4-((4-((2-(1H-indole-2-carbonyl)hydrazono)methyl)-2-methoxyphenoxy)methyl)-1H-1,2,3-triazol-1-yl)-N-(4-bromophenyl)acetamide] the IC50 (yeast α-glucosidase [1]; [4]) was 8.3 ± 0.16 µM, the “mechanism of α-glucosidase inhibition” value (yeast α-glucosidase [2]) was “uncompetitive inhibitors” and the Ki (yeast α-glucosidase [2]) was 8.3 µM. For the same compound, the “cytotoxicity on normal cell line” value [3] was “non-cytotoxic”.

For `COc1cc(/C=N/NC(=O)c2cc3ccccc3[nH]2)ccc1OCc1cn(CC(=O)Nc2cccc(Cl)c2Cl)nn1` [Compound 11l, (E)-2-(4-((4-((2-(1H-indole-2-carbonyl)hydrazono)methyl)-2-methoxyphenoxy)methyl)-1H-1,2,3-triazol-1-yl)-N-(2,3-dichlorophenyl)acetamide], the IC50 (yeast α-glucosidase [1]) was 18.2 ± 0.81 µM.

With `Cc1cc(NC(=O)Cn2cc(COc3ccc(/C=N/NC(=O)c4cc5ccccc5[nH]4)cc3)nn2)ccc1[N+](=O)[O-]` [Compound 11h, (E)-2-(4-((4-((2-(1H-indole-2-carbonyl)hydrazono)methyl)phenoxy)methyl)-1H-1,2,3-triazol-1-yl)-N-(3-methyl-4-nitrophenyl)acetamide] the IC50 (yeast α-glucosidase [1]) was 35.11 ± 0.07 µM and the melting point was 200 to 202 °C.

With `COc1ccc(NC(=O)Cn2cc(COc3ccc(/C=N/NC(=O)c4cc5ccccc5[nH]4)cc3)nn2)cc1` [Compound 11d, (E)-2-(4-((4-((2-(1H-indole-2-carbonyl)hydrazono)methyl)phenoxy)methyl)-1H-1,2,3-triazol-1-yl)-N-(4-methoxyphenyl)acetamide] the “times more potent than acarbose” value (yeast α-glucosidase [1]; ratio of IC50 values vs acarbose) was 118.8 times, the IC50 (yeast α-glucosidase [1]; [4]) was 6.31 ± 0.03 µM and the “mechanism of α-glucosidase inhibition” value (yeast α-glucosidase [2]) was “uncompetitive inhibitors”. For the same compound, the Ki (yeast α-glucosidase [2]) was 6.3 µM and the “cytotoxicity on normal cell line” value [3] was “non-cytotoxic”.

In the case of `Cc1ccc(NC(=O)Cn2cc(COc3ccc(/C=N/NC(=O)c4cc5ccccc5[nH]4)cc3)nn2)cc1` [Compound 11c, (E)-2-(4-((4-((2-(1H-indole-2-carbonyl)hydrazono)methyl)phenoxy)methyl)-1H-1,2,3-triazol-1-yl)-N-(p-tolyl)acetamide], the IC50 (yeast α-glucosidase [1]; [4]) is reported as 19.12 ± 0.08 µM and the “diminished inhibitory activity relative to compound 11d” value (yeast α-glucosidase [1]) is reported as 3 folds.
